# Molecular target: IDH1-R132C homodimer enzyme (Homo sapiens (Human), UniProt O75874, R132C)
# Test: In vitro assay IDH1-R132C homodimer, NADPH depletion assay with NADPH/NADP preincubation
# Format: biochemical
# Settings: 5 uM NADPH and 28.75 uM NADP, read-out: IDH R132C NADPH/NADP IC50
# Experimental: The following describes the experimental procedures that can be used to obtain data on columns 3 and 5 of Table 5.
# A test compound is prepared as 10 mM stock in DMSO and diluted to 50× final concentration in DMSO, for a 50 μl reaction mixture. IDH enzyme activity converting alpha-ketoglutarate to 2-hydroxyglutaric acid is measured using a NADPH depletion assay. In the assay the remaining cofactor is measured at the end of the reaction with the addition of a catalytic excess of diaphorase and resazurin, to generate a fluorescent signal in proportion to the amount of NADPH remaining. […] The reaction is started with the addition of 10 μl of Substrate Mix ([…], 5 mM alpha-ketoglutarate, in Assay Buffer) and the mixture is incubated for 60 minutes at room temperature.
# The concentration of alpha-ketoglutarate in the Substrate Buffer is 1 mM.
# IDH1-R132C homodimer enzyme, sequence (O75874 whole entry R132C): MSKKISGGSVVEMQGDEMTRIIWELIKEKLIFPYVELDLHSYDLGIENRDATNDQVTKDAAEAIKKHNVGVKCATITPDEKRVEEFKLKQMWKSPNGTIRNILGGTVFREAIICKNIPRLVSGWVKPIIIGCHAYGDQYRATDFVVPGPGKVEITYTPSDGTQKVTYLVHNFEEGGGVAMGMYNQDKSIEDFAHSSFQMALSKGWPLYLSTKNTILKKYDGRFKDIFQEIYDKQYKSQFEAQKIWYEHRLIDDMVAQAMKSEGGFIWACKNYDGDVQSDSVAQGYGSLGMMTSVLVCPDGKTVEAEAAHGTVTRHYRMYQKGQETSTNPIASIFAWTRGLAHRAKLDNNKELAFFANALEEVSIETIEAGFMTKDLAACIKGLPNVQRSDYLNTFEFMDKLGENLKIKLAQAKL
row,SMILES,IC50 [nM]
1,Fc1cc(F)cc(Nc2nc(NC3CC(F)(F)C3)nc(-n3ccc(C(F)(F)F)n3)n2)c1 [Compound 106],< 50
2,FC1(F)CCC(Nc2nc(NC3CCC(F)(F)CC3)nc(-c3cncc(C(F)(F)F)n3)n2)CC1 [Compound 160],100 to 1000
3,FC1(F)CC(Nc2nc(NC3CC(F)(F)C3)nc(-c3cncc(C(F)(F)F)n3)n2)C1 [Compound 161],50 to 100
4,N#CC1(c2cc(Nc3nc(NC4CC(F)(F)C4)nc(-c4cccc(C(F)(F)F)n4)n3)ccn2)CC1 [Compound 168],50 to 100
5,N#CC1(c2cc(Nc3nc(NC4CCC(F)(F)CC4)nc(-c4cccc(C(F)(F)F)n4)n3)ccn2)CC1 [Compound 189],100 to 1000

# The next lines start with the values.
row,IC50 [nM],SMILES
1,100 to 1000,FC1(F)CCC(Nc2nc(Nc3ccnc(C(F)(F)F)c3)nc(-c3cncc(C(F)(F)F)n3)n2)CC1 [Compound 389]
2,100 to 1000,FC1(F)CC[C@H](Nc2nc(Nc3ccnc(C(F)(F)F)c3)nc(-c3cncc(C(F)(F)F)n3)n2)C1 [Compound 391]
3,100 to 1000,N#CC1(c2cc(Nc3nc(NC4CC(F)(F)C4)nc(-c4cncc(C(F)(F)F)n4)n3)ccn2)CC1 [Compound 401]

# Reference: patent US10028961B2, “Therapeutically active compounds and their methods of use” (AGIOS PHARMACEUTICALS, INC., priority 2013, dated 2018)
